Results reported in EP0804206B1, “ANTIFUNGAL AGENT CONTAINING CROTAMITON, AND SALICYCLIC ALDEHYDE” (Pierre Fabre Dermo-Cosmetique, priority 1995, dated 1996).

Tested on: Trichophyton mentagrophytes n° 8611
Assay: Minimal fungistatic concentration (CMF) of the products alone and combined, with FIC index
Assay type: cell-based
Excerpt: La synergie peut être mise-en évidence par le calcul des index FIC (Fractional Inhibitory Concentration) ou FBC (Fractional Bactericidal Concentration) des produits. Pour cela, on mesure la valeur de la CMF (ou concentration minimale fongistatique), ou de la CMϕ (ou concentration minimale fongicide), des principes actifs à tester vis-à-vis d'un type de germe.
Le FIC d'un produit A est défini comme : FICA (CMF du produit A en association)/(CMF du produit A seul) [formula]
L'association de deux antifongiques A et B est synergique si la somme FIC des rapports (FICA + FICB) est inférieure ou égale à 0,75.
On considère qu'il y a simple additivité pour des valeurs de FIC comprises entre 0,75 et 1,1, et indifférence dans l'intervalle compris entre 1,1 et 2; au-delà, l'association est notée antagoniste.
Après détermination des niveaux de concentrations minimales inhibitrices pour chaque souche, les associations entre les différents principes actifs sont testées. Le FIC Index =(CMI crotamiton associé)/(CMI crotamiton seul)+(CMI salicylaldéhyde associé)/(CMI salicylaldéhyde seul) [formula] est calculé.
Les activités antifongiques du crotamiton et du salicylaldéhyde ont été recherchées sur Trichophyton mentagrophytes.
Les concentrations minimales fongistatiques des produits seuls et associés sont présentées ici.
• * Souche • Trichophyton mentagrophytes n° 8611 • * Milieux de culture • Bouillon Sabouraud • Gélose Sabouraud • Eau distillée stérile • * Produits • Crotamiton (Borhinger, lot-209313) • Salicylaldéhyde Prolabo Rectapur encapsulé dans β cyclodextrines = formule aldéhydique
Les solutions-mère aqueuses des produits suivants ont été testées pour leur meilleure solubilité et sans artéfact d'activité antifongique : • Crotamiton : 0,2% dans 10% PEG 200 • Solution aqueuse à 10% aldhéhyde salicylique.
Les essais sont réalisés plusieurs fois car ces produits sont très volatils, rendant la lecture des tests très difficile. […]

CC=CC(=O)N(CC)c1ccccc1C [Crotamiton, N-éthyl-O crotonotoluidide]
fois moins de produit pour obtenir le même effet antifongique que les produits utilisés seuls (combined versus alone, formule aldéhydique at 10% aldehyde): 30 fois
CMF = Concentrations Minimales Fongistatiques, Seul (product alone, T. mentagrophytes calibrated at 10^6 spores per ml): 0,1%
CMF = Concentrations Minimales Fongistatiques, Associés (product in the binary combination Crotamiton - Formule aldéhydique, T. mentagrophytes 10^6 spores per ml): 0,003%
